Data: ChEMBL document CHEMBL1201862, “PubChem BioAssay data set” (2004)
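Where inhibition never reached the appropriate level, the endpoint shown equals the highest concentration tested. Otherwise, values were interpolated linearly from a five-concentration, 48-hour dose response in 96-well plates. GI50 = concentration required for 50% inhibition of growth.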 Calls of active or inactive are those of the source. No stated cut-off is given here; in the data, active = GI50 up to about 1.1 µM and inactive = higher.

How the values were obtained:
Experiment in all cases: NCI tumour cell line growth inhibition, 48 h
HOP-62 = test system: HOP-62
SF-268 = test system: SF-268
OVCAR-5 = test system: OVCAR-5
A498 = test system: A498
HCT-116 = test system: HCT-116
HOP-92 = test system: HOP-92
SK-MEL-2 = test system: SK-MEL-2
SF-539 = test system: SF-539
U-251 = test system: U-251
IGROV-1 = test system: IGROV-1
NCI-H226 = test system: NCI-H226
ACHN = test system: ACHN
Malme-3M = test system: Malme-3M
SR = test system: SR
OVCAR-3 = test system: OVCAR-3
786-0 = test system: 786-0
UACC-62 = test system: UACC-62
RXF 393 = test system: RXF 393

SMILES | GI50 (HOP-62) | GI50 (SF-268) | GI50 (OVCAR-5) | GI50 (A498) | GI50 (HCT-116) | GI50 (HOP-92) | GI50 (SK-MEL-2) | GI50 (SF-539) | GI50 (U-251) | GI50 (IGROV-1) | GI50 (NCI-H226) | GI50 (ACHN) | GI50 (Malme-3M) | GI50 (SR) | GI50 (OVCAR-3) | GI50 (786-0) | GI50 (UACC-62) | GI50 (RXF 393)
N#Cc1nc(Nc2ccc([N+](=O)[O-])cc2)sc1N | 20.4 µM (inactive) | 11.8 µM (inactive) | 28.6 µM (inactive) | 26.2 µM (inactive) | 11.3 µM (inactive) | 27.3 µM (inactive) | 21.6 µM (inactive) | 4.02 µM (inactive) | 9.68 µM (inactive) | 23.4 µM (inactive) | 27.4 µM (inactive) | 9.62 µM (inactive) | 23.9 µM (inactive) | 0.675 µM (active) | 16.9 µM (inactive) | 21.2 µM (inactive) | 15.8 µM (inactive) | –
CCOC(=O)C1C(c2ccc(Cl)cc2Cl)NC(c2ccc(C)cc2)C(C(=O)OC)S1(=O)=O (stereo not drawn) | > 100 µM (inactive) | 72.9 µM (inactive) | > 100 µM (inactive) | > 100 µM (inactive) | – | 12 µM (inactive) | 95.1 µM (inactive) | > 100 µM (inactive) | > 100 µM (inactive) | > 100 µM (inactive) | 76.4 µM (inactive) | 80.4 µM (inactive) | > 100 µM (inactive) | 69 µM (inactive) | > 100 µM (inactive) | 60.5 µM (inactive) | 53.1 µM (inactive) | > 100 µM (inactive)
CCC1(COC(NC(=O)c2ccccc2)(C(F)(F)F)C(F)(F)F)COC1 | – | > 100 µM (inactive) | > 100 µM (inactive) | > 100 µM (inactive) | > 100 µM (inactive) | – | > 100 µM (inactive) | > 100 µM (inactive) | > 100 µM (inactive) | > 100 µM (inactive) | – | 65.6 µM (inactive) | – | > 100 µM (inactive) | – | > 100 µM (inactive) | – | > 100 µM (inactive)
COc1ccc2nc3cc(Cl)ccc3c(NCCC[N+](C)(C)CCCCCCCCCCCCCCCC[N+](C)(C)CCCNc3c4ccc(Cl)cc4nc4ccc(OC)cc34)c2c1 | 2.88 µM (inactive) | 2.11 µM (inactive) | 2.92 µM (inactive) | 6.17 µM (inactive) | 1.75 µM (inactive) | – | 1.79 µM (inactive) | 2.25 µM (inactive) | 2 µM (inactive) | 2.7 µM (inactive) | 3.94 µM (inactive) | 6.22 µM (inactive) | 2.24 µM (inactive) | – | 4.81 µM (inactive) | 3.63 µM (inactive) | 2.69 µM (inactive) | 2.84 µM (inactive)
O=C(c1ccccc1)c1nc2ccc(Cl)cc2c2c1Cc1ccccc1-2 | > 100 µM (inactive) | > 100 µM (inactive) | > 100 µM (inactive) | – | > 100 µM (inactive) | – | > 100 µM (inactive) | > 100 µM (inactive) | > 100 µM (inactive) | > 100 µM (inactive) | > 100 µM (inactive) | > 100 µM (inactive) | > 100 µM (inactive) | > 100 µM (inactive) | > 100 µM (inactive) | > 100 µM (inactive) | > 100 µM (inactive) | > 100 µM (inactive)
COc1ccc2c(c1)[n+]([O-])c(/C(C)=N/NC(=O)c1ccccc1O)c(C)[n+]2[O-] | > 100 µM (inactive) | > 100 µM (inactive) | > 100 µM (inactive) | – | > 100 µM (inactive) | > 100 µM (inactive) | > 100 µM (inactive) | > 100 µM (inactive) | > 100 µM (inactive) | > 100 µM (inactive) | > 100 µM (inactive) | > 100 µM (inactive) | > 100 µM (inactive) | – | > 100 µM (inactive) | > 100 µM (inactive) | > 100 µM (inactive) | > 100 µM (inactive)
C=C1CC2OC(=O)C(=C)C2C(O)C2C(=C)CCC12 (stereo not drawn) | – | 16.7 µM (inactive) | 12.3 µM (inactive) | 0.31 µM (active) | 3.62 µM (inactive) | 2.06 µM (inactive) | 15.7 µM (inactive) | 3.69 µM (inactive) | 16.8 µM (inactive) | 17.7 µM (inactive) | 20.4 µM (inactive) | 9.04 µM (inactive) | 15 µM (inactive) | 3.21 µM (inactive) | 10.1 µM (inactive) | 13.4 µM (inactive) | 3.48 µM (inactive) | 4.05 µM (inactive)
O=C1C2C3C=C4c5ccccc5N(c5ccccc5)C4([C@@H]2C(=O)N1c1ccc(F)cc1)[C@H]1C(=O)N(c2ccc(F)cc2)C(=O)[C@@H]31 (stereo partly drawn) | – | 37.2 µM (inactive) | > 100 µM (inactive) | – | – | > 100 µM (inactive) | > 100 µM (inactive) | > 100 µM (inactive) | > 100 µM (inactive) | – | > 100 µM (inactive) | > 100 µM (inactive) | > 100 µM (inactive) | > 100 µM (inactive) | > 100 µM (inactive) | > 100 µM (inactive) | – | 81.3 µM (inactive)
CC(C)N(C(=O)C12C3C4C1C1C2C3C41C(=O)C(C)(C)C)C(C)C (stereo not drawn) | > 100 µM (inactive) | > 100 µM (inactive) | > 100 µM (inactive) | > 100 µM (inactive) | 92.9 µM (inactive) | – | > 100 µM (inactive) | > 100 µM (inactive) | > 100 µM (inactive) | > 100 µM (inactive) | – | > 100 µM (inactive) | > 100 µM (inactive) | – | > 100 µM (inactive) | > 100 µM (inactive) | > 100 µM (inactive) | –
